{
  "source": "paper PMC7138307",
  "about": "(PLoS ONE, 2020)",
  "key": {"TTBK1": {"molecular_target": "T1, TTBK1 (Homo sapiens, UniProt Q5TCY1)", "T1 construct": "TTBK1 1-479aa; SignalChem Catalog # T17-11G-05; purchased SignalChem T17-11G-05", "T1 sequence (Q5TCY1 1-479)": "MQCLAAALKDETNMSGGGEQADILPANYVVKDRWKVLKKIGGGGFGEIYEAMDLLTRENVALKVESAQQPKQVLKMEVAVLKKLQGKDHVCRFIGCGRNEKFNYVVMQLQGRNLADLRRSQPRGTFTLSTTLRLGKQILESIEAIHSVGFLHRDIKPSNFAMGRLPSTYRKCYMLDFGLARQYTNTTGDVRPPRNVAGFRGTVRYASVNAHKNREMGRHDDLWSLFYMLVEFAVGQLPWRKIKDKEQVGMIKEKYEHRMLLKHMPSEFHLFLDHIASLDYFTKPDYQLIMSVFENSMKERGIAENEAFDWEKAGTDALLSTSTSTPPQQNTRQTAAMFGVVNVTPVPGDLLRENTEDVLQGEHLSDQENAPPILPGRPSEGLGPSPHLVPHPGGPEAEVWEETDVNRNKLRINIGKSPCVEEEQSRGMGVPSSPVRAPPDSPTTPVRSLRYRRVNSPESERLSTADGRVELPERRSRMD", "assay": "TTBK biochemical (recombinant kinase) assay", "description": "Final Kinase Activity conditions; 400 pM TTBK1 at ambient temperature in 25 mM Hepes, pH 7.5, 50 mM NaCl, 10 mM MgCl2, 0.02% Brij-35, 1 mM DTT, 10 uM ATP and 100 nM Ulight TOPO IIa peptide substrate ([sequence]). After a 2 hour incubation at 23 °C, the kinase reaction was quenched with 30 ul of 60 mM EDTA, and 2 nM Eu-anti- FDEKpTDDEDF antibody in 1X Lance Delfia Detection Buffer and incubated for one hour prior to detection with the EnVision Multilabel Reader (PerkinElmer). […] For compound inhibition, 15 ul of 800 pM TTBK1 was preincubated for 30 minutes with 300 nl of 100x compound stock in DMSO before initiation of the activity by addition of 15 ul of 2x Substrate Stock (200 nM peptide and 20 uM ATP)."}, "[1]": {"system": "tau phosphorylation following TTBK1 overexpression in HEK293 cells", "assay": "Western blot of tau phosphorylation in HEK293 cells overexpressing TTBK1 and human Tau (2N4R) plus or minus staurosporine", "format": "cell-based", "conditions": "10μM, one hour", "source_text": "However, it is unclear whether TTBK1 directly phosphorylates tau at these sites or whether it enhances the phosphorylation of tau through the activation of other kinases. […]; Fig 1A). […]. TTBK1 overexpression led to the increase in tau phosphorylation at several sites; some previously identified including S422, AT8 ([…]) and S198 as well as additional novel sites like AT180 (Thr231), PHF-13 (S396), S214, and S356 (Fig 1B and 1C). […].\nFig 1 TTBK1 overexpression leads to direct and indirect phosphorylation of Tau at disease-relevant sites. (A) Phylogenetic tree of the human kinome illustrating the biochemical IC50 for Staurosporine against various kinases (data compiled from Davis et al., 2011 in addition to internal data on the affinity of Staurosporine for TTBK1/TTBK2). […] TTBK1 overexpression caused a dramatic increase in the overall level of tau phosphorylation. […]. HEK293 cells obtained from American Type Culture Collection (ATCC, Manassas, VA) were cultured in Dulbecco's modified Eagle's medium (DMEM) supplemented with 10% fetal bovine serum (FBS), 10 units/ml penicillin, and 10μg/ml streptomycin (all reagents were purchased from Gibco, Waltham, MA). Cell cultures were maintained in a humidified 5% (v/v) CO2/air environment at 37°C. When the cells reached 50–80% confluence, they were transfected with a complex consisting of a 3:1 ratio of FuGENE 6 Transfection Reagent (Promega, Madison, WI) and plasmid DNA. Plasmid DNA was balanced out across reactions using an empty plasmid so that the same amount of DNA was added per well. This transfection complex was prepared following the manufacturers protocol and added directly to the cell media for 24 or 48 hours prior to lysis.\nSamples were lysed in Pierce RIPA lysis and extraction buffer (Thermo Fisher Scientific, Waltham, MA) supplemented with 1% Halt protease and phosphatase inhibitor cocktail (Thermo Fisher Scientific, Waltham, MA) and centrifuged at 14000 x g for 20 min at 4°C to clear the lysate. Protein concentrations were determined using the Direct Detect Infrared Spectrometer (EMD Millipore Corp., Burlington, MA) and 10μg of each sample was denatured in 6X SDS sample buffer (Boston Bioproducts, Ashland, MA) for 7 minutes at 90°C. Proteins were loaded into a Criterion 7.5% tris-glycine gel (Bio-Rad, Hercules, CA) and separated by SDS-PAGE at 120V for 120 minutes. The gel was transferred to an IBlot2 nitrocellulose membrane (Invitrogen, Carlsbad, CA), blocked with TBST blocking buffer (Li-cor Biosciences, Lincoln, NE) for 1 hour, and washed three times with TBST. The membrane was probed with primary antibodies (1:1000 dilution) in antibody dilution buffer (1:1 TBST blocking buffer and 1X TBST) overnight at 4°C. The following antibodies were used for immunoblotting: TTBK1 (Cat# PA5-20686, Invitrogen, Carlsbad, CA), Tau-5 (Cat# ab80579, Abcam, Cambridge, UK), phospho-Tau S422 (Cat# ab79415, Abcam, Cambridge, UK), S198 (Cat# ab79540, Abcam, Cambridge, UK), AT8 S202/T205 (Cat# MN1020, Invitrogen, Carlsbad, CA), S214 (Cat# ab170892, Abcam, Cambridge, UK), AT180 T231 (Cat# MN1040, Invitrogen, Carlsbad, CA), S262 (Cat# ab131354, Abcam, Cambridge, UK), S356 (Cat# ab75603, Abcam, Cambridge, UK), S396 (Cat# ab109390, Abcam, Cambridge, UK), GAPDH (Cat# 5174S, Cell Signaling Technology, Danvers, MA), and β-actin (Cat# 926–42212, Li-cor Biosciences, Lincoln, NE). The blot was then washed in triplicate with TBST and incubated for 1 hour with secondary antibody (1:10,000 dilution of IRDye 800 anti-mouse IgG and IRDye 680 anti-rabbit IgG, Li-cor Biosciences, Lincoln, NE) in antibody dilution buffer. After a final triplicate wash with TBST, the blot was visualized using the Odyssey CLx imaging system (Li-cor Biosciences, Lincoln, NE)."}},
  "data": [
    {"smiles": "CN[C@@H]1C[C@H]2O[C@@](C)([C@@H]1OC)n1c3ccccc3c3c4c(c5c6ccccc6n2c5c31)C(=O)NC4", "note": "[Staurosporine, staurosporine]", "values": [
      {"measurement": "IC50", "setting": "TTBK1", "result": "> 30", "unit": "µM"},
      {"measurement": "increase in tau phosphorylation at AT8 following TTBK1 overexpression", "setting": "[1]", "result": "not inhibited"},
      {"measurement": "increase in tau phosphorylation at S198 following TTBK1 overexpression", "setting": "[1]", "result": "not inhibited"},
      {"measurement": "increase in tau phosphorylation at S422 following TTBK1 overexpression", "setting": "[1]", "result": "not inhibited"},
      {"measurement": "phosphorylation of tau at AT180", "setting": "[1]", "result": "reduced"},
      {"measurement": "phosphorylation of tau at S214", "setting": "[1]", "result": "reduced"},
      {"measurement": "phosphorylation of tau at S356", "setting": "[1]", "result": "reduced"},
      {"measurement": "phosphorylation of tau at S396", "setting": "[1]", "result": "reduced"}
    ]}
  ]
}
